Results taken from the supplement of paper PMC10307832.

Columns and labels:
Test in all cases: relative viability (nuclei count vs DMSO), 5 days (fraction); higher = more cells survive
IPA-3 + Luminespib = compound: C1=CC=C2C(=C1)C=CC(=C2SSC3=C(C=CC4=CC=CC=C43)O)O [IPA-3] + CCNC(=O)c1noc(-c2cc(C(C)C)c(O)cc2O)c1-c1ccc(CN2CCOCC2)cc1 [Luminespib] (partner 0.01 µM)
Method in brief: (§1)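 One day after seeding in 1536-well plates, lung cancer cell lines were dosed by pin tool. Dosing was either single-drug or a fixed anchor-drug dose plus five library-drug doses (not always all listed) in √10 steps. After 5 days, nuclei were stained in one fix-and-stain step and counted on 4× images, and relative viability is the nuclei count of treated wells over that of vehicle wells, given as the median of duplicate plates.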

IPA-3 + Crizotinib = compound: C1=CC=C2C(=C1)C=CC(=C2SSC3=C(C=CC4=CC=CC=C43)O)O [IPA-3] + C[C@@H](Oc1cc(-c2cnn(C3CCNCC3)c2)cnc1N)c1c(Cl)ccc(F)c1Cl [Crizotinib] (partner 1 µM)
Method in brief: as §1

IPA-3 + AZD7762 = compound: C1=CC=C2C(=C1)C=CC(=C2SSC3=C(C=CC4=CC=CC=C43)O)O [IPA-3] + NC(=O)Nc1cc(-c2cccc(F)c2)sc1C(=O)N[C@H]1CCCNC1 [AZD7762] (partner 0.2 µM)
Method in brief: as §1

Doramapimod + Lapatinib = compound: Cc1ccc(-n2nc(C(C)(C)C)cc2NC(=O)Nc2ccc(OCCN3CCOCC3)c3ccccc23)cc1 [Doramapimod] + CS(=O)(=O)CCNCc1ccc(-c2ccc3ncnc(Nc4ccc(OCc5cccc(F)c5)c(Cl)c4)c3c2)o1 [Lapatinib] (partner 2 µM)
Method in brief: as §1

Cell Line	relative viability (IPA-3 + Luminespib; first compound 0.2 µM)	relative viability (IPA-3 + Luminespib; first compound 0.6325 µM)	relative viability (IPA-3 + Luminespib; first compound 2 µM)	relative viability (IPA-3 + Luminespib; first compound 6.325 µM)	relative viability (IPA-3 + Luminespib; first compound 20 µM)	relative viability (IPA-3 + Crizotinib; first compound 0.2 µM)	relative viability (IPA-3 + Crizotinib; first compound 0.6325 µM)	relative viability (IPA-3 + Crizotinib; first compound 2 µM)	relative viability (IPA-3 + Crizotinib; first compound 6.325 µM)	relative viability (IPA-3 + Crizotinib; first compound 20 µM)	relative viability (IPA-3 + AZD7762; first compound 0.2 µM)	relative viability (IPA-3 + AZD7762; first compound 0.6325 µM)	relative viability (IPA-3 + AZD7762; first compound 2 µM)	relative viability (IPA-3 + AZD7762; first compound 6.325 µM)	relative viability (IPA-3 + AZD7762; first compound 20 µM)	relative viability (Doramapimod + Lapatinib; first compound 0.02 µM)	relative viability (Doramapimod + Lapatinib; first compound 0.06325 µM)	relative viability (Doramapimod + Lapatinib; first compound 0.2 µM)	relative viability (Doramapimod + Lapatinib; first compound 0.6325 µM)	relative viability (Doramapimod + Lapatinib; first compound 2 µM)
PC-3 [JPC-3]	0.742	0.666	0.719	0.641	0.801	1.04	0.964	0.937	0.976	0.923	0.926	1.34	0.916	0.741	0.807	0.475	0.433	0.432	0.485	0.348
HCC-15	0.625	0.209	0.253	0.514	0.417	0.812	0.855	0.825	0.776	0.886	1.48	1.29	1.18	1.18	1.37	0.864	0.962	0.84	0.521	0.752
LU99A	0.295	0.179	0.292	0.206	0.214	0.635	0.529	0.615	0.517	0.533	0.403	0.318	0.28	0.365	0.309	0.959	1	0.981	1.1	0.897
NCI-H1666	1.06	0.972	1.04	1.16	1.34	1.1	1.04	1.07	1.15	0.799	0.866	0.815	0.788	0.962	0.905	0.814	0.702	0.654	0.637	0.68
NCI-H2170	0.691	0.574	0.772	0.748	0.683	1.24	1.11	1.18	1.16	1.33	1.1	0.826	0.78	0.795	0.919	0.298	0.285	0.259	0.316	0.259
LCLC-97TM1	0.99	0.733	0.608	0.855	0.783	0.439	0.355	0.448	0.315	0.343	0.356	0.205	0.307	0.251	0.247	0.859	0.792	1	1.05	0.853
NCI-H3122	0.0957	0.0861	0.108	0.074	0.116	0.265	0.283	0.324	0.269	0.273	1.02	1.01	0.995	1.11	0.999	1.02	0.962	0.974	1.08	0.932
NCI-H1651	1.04	0.768	0.853	0.959	1.02	0.962	0.85	0.909	0.88	0.961	0.573	0.473	0.411	0.554	0.499	0.878	0.791	0.864	0.99	0.781
HARA	0.991	0.767	0.0423	0.889	1.08	1.21	1.22	1.09	1.14	1.24	0.341	0.324	0.339	1.04	0.273	0.606	0.713	0.794	0.968	0.637
NCI-H1944	0.914	0.651	0.891	0.827	0.937	1.21	0.995	1.11	1.17	1.07	0.766	0.492	0.536	0.718	0.541	0.761	0.823	0.722	0.963	0.585
NCI-H2347	0.525	0.0323	0.357	0.269	0.45	0.834	0.749	0.724	0.697	0.708	0.789	0.604	0.777	0.738	0.904	0.932	0.897	0.969	0.67	0.875
201T	1.07	1.02	1.08	1.05	1.14	1.04	1.01	1.05	1.03	1.04	0.641	0.584	0.724	0.699	0.828	1.05	1.11	0.955	1.11	0.971
PC-14	0.165	0.151	0.189	0.161	0.142	0.938	0.858	1.08	0.839	1	0.402	0.362	0.431	0.328	0.407	0.292	0.322	0.346	0.425	0.319
NCI-H727	0.318	1.29	0.755	0.33	0.24	0.937	0.765	0.818	0.699	0.792	0.652	0.604	0.674	0.617	0.706	0.969	0.731	0.815	0.778	0.933
NCI-H1792	0.475	0.529	0.418	0.38	0.615	1.14	1.01	1.01	0.996	1.16	0.97	0.519		0.604	0.572	0.898	0.986	0.909	0.859	0.858
HOP-62	1.12	0.919	0.963	0.855	1.11	1.3	0.643	1.01	1.01	0.922	0.787	0.828	0.657	0.606	0.661	0.918	1.12	0.991	0.95	0.927

Cell Line	relative viability (IPA-3 + Luminespib; first compound 0.2 µM)	relative viability (IPA-3 + Luminespib; first compound 0.6325 µM)	relative viability (IPA-3 + Luminespib; first compound 2 µM)	relative viability (IPA-3 + Luminespib; first compound 6.325 µM)	relative viability (IPA-3 + Luminespib; first compound 20 µM)	relative viability (IPA-3 + Crizotinib; first compound 0.2 µM)	relative viability (IPA-3 + Crizotinib; first compound 0.6325 µM)	relative viability (IPA-3 + Crizotinib; first compound 2 µM)	relative viability (IPA-3 + Crizotinib; first compound 6.325 µM)	relative viability (IPA-3 + Crizotinib; first compound 20 µM)	relative viability (IPA-3 + AZD7762; first compound 0.2 µM)	relative viability (IPA-3 + AZD7762; first compound 0.6325 µM)	relative viability (IPA-3 + AZD7762; first compound 2 µM)	relative viability (IPA-3 + AZD7762; first compound 6.325 µM)	relative viability (IPA-3 + AZD7762; first compound 20 µM)	relative viability (Doramapimod + Lapatinib; first compound 0.02 µM)	relative viability (Doramapimod + Lapatinib; first compound 0.06325 µM)	relative viability (Doramapimod + Lapatinib; first compound 0.2 µM)	relative viability (Doramapimod + Lapatinib; first compound 0.6325 µM)	relative viability (Doramapimod + Lapatinib; first compound 2 µM)
NCI-H1915	0.968	0.534	0.775	0.713	0.926	1.02	0.905	0.923	0.867	0.949	0.77	0.713	0.693	0.68	0.694	0.973	1.1	1.01	0.995	0.844
BEN	0.387	0.439	0.386	0.576	0.472	1.01	0.905	0.98	0.788	0.961	0.726	0.656	0.801	0.767	0.672	0.728	0.687	0.746	0.475	0.717
NCI-H1437	1.15	0.951	1.1	1.03	1.24	1.19	0.896	1.04	0.895	1.34	1.2	1.08	1.18	1.06	1.19	0.805	0.905	0.837	0.898	0.723
EMC-BAC-2	1.13	1.04	1.2	1.2	1.21	0.79	0.769	0.771	0.698	0.829	1.15	1.17	1.12	1.08	1.16	0.918	0.935	0.871	1.01	0.715
NCI-H647	0.192	0.148	0.176	0.142	0.102	1.22	1.01	0.991	0.596	0.173	0.675	0.408	0.555	0.402	0.0953	0.789	1.09	1.21	1.06	0.826
LXF-289	0.844	0.648	0.646	0.814	0.691	0.828	0.764	0.811	0.829	0.86	1.22	1.01	1.17	1.25	1.22	0.851	0.924	0.912	0.871	0.834
LOU-NH91	0.326	0.26	0.332	0.33	0.358	0.723	0.757	0.809	0.728	0.801	0.8	0.747	0.799	0.76	0.788	0.693	0.673	0.678	0.631	0.628
NCI-H23	0.221	0.224	0.201	0.227	0.204	0.488	0.376	0.599	0.545	0.654	0.207	0.274	0.261	0.32	0.363	0.962	0.998	1.11	0.761	1.12
NCI-H1993	1.05	1.32	0.852	0.478	0.844	0.71	0.811	0.885	0.889	0.998	0.971	0.922	0.85	0.738	0.726	0.792	0.728	0.774	1.03	0.877
HCC-827	0.881	0.588	0.627	0.67	0.745	0.927	0.89	0.865	0.873	0.859	0.256	0.281	0.253	0.355	0.286	0.2	0.272	0.17	0.352	0.201
NCI-H650	0.964	0.851	0.733	0.805	1.06	0.824	0.548	0.627	0.802	0.909	1.1	1.01	1.08	0.935	1.08	1.03	0.938	1.43	0.921	0.844
CAL-12T	0.724	0.287	0.449	0.375	0.488	0.479	0.6	0.699	0.516	0.69	0.634	0.662	0.661	0.629	0.686	0.674	0.557	0.676	0.611	0.623
NCI-H838	0.238	0.218	0.306	0.276	0.378	1.02	0.788	0.914	0.839	1.27	1.05	0.94	1	0.967	1.08	0.982	0.996	1.19	1.27	0.843
RERF-LC-KJ	1.46	1.27	1.29	1.39	1.14	0.794	0.796	0.922	0.789	0.816	1.08	0.955	1.01	0.921	1.15	0.983	0.946	0.879	0.908	0.814
HCC-44	1.12	0.995	1.21	0.947	1.25	0.859	0.735	0.917	0.804	0.807	0.963	0.998	1.02	1	0.907	1.1	1.05	1.07	0.837	0.963
A-427	1.02	0.855	0.999	0.803	1.02	1.11	0.775	0.896	0.91	1.12	0.902	0.701	0.731	0.706	0.772	1.03	1.17	1.09		1.04
